# Results reported in patent publication US11767310B2, “Nicotinamide RIPK1 inhibitors” (AbbVie Inc., priority 2021, dated 2023).
# Like-named read-outs stand apart in the source and are kept apart here.
# What was measured:
# [1] = tested on: non-mutant kinases; assay: Selectivity score (S-score) from kinase binding screen; set-up: species or system human; details: Screening Concentration 100 nM; 403 non-mutant kinases
# Protocol: Based on the binding affinities in Table D, a selectivity score (S-score) was calculated for each compound as a quantitative measure of compound selectivity. The S-score is calculated by dividing the number of kinases that a compound binds to by the total number of distinct kinases tested, excluding mutant variants. The selectivity score value can be calculated using % Ctrl as a potency threshold, as shown below, and provides a quantitative method of describing compound selectivity to facilitate comparison of different compounds.
# S(10)=(number of non-mutant kinases with % Ctrl<[…])/(number of non-mutant kinases tested).
# […]=(number of non-mutant kinases with % Ctrl<[…])/(number of non-mutant kinases tested).
# […]=(number of non-mutant kinases with % Ctrl<1)/(number of non-mutant kinases tested).
# [2] = biological target: EGFR(L858R,T790M) (Homo sapiens (Human), UniProt P00533, L858R/T790M); assay: Kinase binding screen; details: read-out: Percent Control at 100 nM Compound Concentration
# [3] = biological target: PRKG1 (Homo sapiens (Human), UniProt Q13976); assay: Kinase binding screen; details: read-out: Percent Control at 100 nM Compound Concentration
# [4] = biological target: CDK3 (Homo sapiens (Human), UniProt Q00526); assay: Kinase binding screen; details: read-out: Percent Control at 100 nM Compound Concentration
# [5] = biological target: MEK5 (Homo sapiens (Human), UniProt Q13163); assay: Kinase binding screen; details: read-out: Percent Control at 100 nM Compound Concentration
# [6] = biological target: INSR (Homo sapiens (Human), UniProt P06213); assay: Kinase binding screen; details: read-out: Percent Control at 100 nM Compound Concentration
# [7] = biological target: CAMKK2 (Homo sapiens (Human), UniProt Q96RR4); assay: Kinase binding screen; details: read-out: Percent Control at 100 nM Compound Concentration
# [8] = biological target: p38-beta (Homo sapiens (Human), UniProt Q15759); assay: Kinase binding screen; details: read-out: Percent Control at 100 nM Compound Concentration
# [9] = biological target: KIT(D816H) (Homo sapiens (Human), UniProt P10721, D816H); assay: Kinase binding screen; details: read-out: Percent Control at 100 nM Compound Concentration
# [10] = biological target: HUNK (Homo sapiens (Human), UniProt P57058); assay: Kinase binding screen; details: read-out: Percent Control at 100 nM Compound Concentration
# [11] = biological target: MRCKB (Homo sapiens (Human), UniProt Q9Y5S2); assay: Kinase binding screen; details: read-out: Percent Control at 100 nM Compound Concentration
# [12] = biological target: ERK3 (Homo sapiens (Human), UniProt Q16659); assay: Kinase binding screen; details: read-out: Percent Control at 100 nM Compound Concentration
# [13] = biological target: ERK8 (Homo sapiens (Human), UniProt Q8TD08); assay: Kinase binding screen; details: read-out: Percent Control at 100 nM Compound Concentration
# [14] = biological target: ICK (Homo sapiens (Human), UniProt Q9UPZ9); assay: Kinase binding screen; details: read-out: Percent Control at 100 nM Compound Concentration
# [15] = biological target: ERBB3 (Homo sapiens (Human), UniProt P21860); assay: Kinase binding screen; details: read-out: Percent Control at 100 nM Compound Concentration
# [16] = biological target: ERK2 (Homo sapiens (Human), UniProt P28482); assay: Kinase binding screen; details: read-out: Percent Control at 100 nM Compound Concentration
# [17] = biological target: PDGFRB (Homo sapiens (Human), UniProt P09619); assay: Kinase binding screen; details: read-out: Percent Control at 100 nM Compound Concentration
# [18] = biological target: MEK6 (Homo sapiens (Human), UniProt P52564); assay: Kinase binding screen; details: read-out: Percent Control at 100 nM Compound Concentration
# [19] = biological target: GSK3B (Homo sapiens (Human), UniProt P49841); assay: Kinase binding screen; details: read-out: Percent Control at 100 nM Compound Concentration
# [20] = biological target: PIK3CB (Homo sapiens (Human), UniProt P42338); assay: Kinase binding screen; details: read-out: Percent Control at 100 nM Compound Concentration
# [21] = biological target: TAOK1 (Homo sapiens (Human), UniProt Q7L7X3); assay: Kinase binding screen; details: read-out: Percent Control at 100 nM Compound Concentration
# [22] = biological target: YSK1 (Homo sapiens (Human), UniProt O00506); assay: Kinase binding screen; details: read-out: Percent Control at 100 nM Compound Concentration
# [23] = biological target: FGR (Homo sapiens (Human), UniProt P09769); assay: Kinase binding screen; details: read-out: Percent Control at 100 nM Compound Concentration
# [24] = biological target: YSK4 (Homo sapiens (Human), UniProt Q56UN5); assay: Kinase binding screen; details: read-out: Percent Control at 100 nM Compound Concentration
# [25] = biological target: STK33 (Homo sapiens (Human), UniProt Q9BYT3); assay: Kinase binding screen; details: read-out: Percent Control at 100 nM Compound Concentration
# [26] = biological target: IRAK3 (Homo sapiens (Human), UniProt Q9Y616); assay: Kinase binding screen; details: read-out: Percent Control at 100 nM Compound Concentration
# CDK3, sequence (Q00526 whole entry): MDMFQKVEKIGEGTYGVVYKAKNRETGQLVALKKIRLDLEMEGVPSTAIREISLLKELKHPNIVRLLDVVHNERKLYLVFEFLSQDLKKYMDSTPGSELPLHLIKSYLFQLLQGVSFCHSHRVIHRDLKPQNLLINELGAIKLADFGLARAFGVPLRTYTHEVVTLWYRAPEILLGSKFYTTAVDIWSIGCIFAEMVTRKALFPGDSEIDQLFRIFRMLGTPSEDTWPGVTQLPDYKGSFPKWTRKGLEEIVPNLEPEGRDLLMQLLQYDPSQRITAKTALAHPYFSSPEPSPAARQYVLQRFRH
# ERBB3, sequence (P21860 20-1342): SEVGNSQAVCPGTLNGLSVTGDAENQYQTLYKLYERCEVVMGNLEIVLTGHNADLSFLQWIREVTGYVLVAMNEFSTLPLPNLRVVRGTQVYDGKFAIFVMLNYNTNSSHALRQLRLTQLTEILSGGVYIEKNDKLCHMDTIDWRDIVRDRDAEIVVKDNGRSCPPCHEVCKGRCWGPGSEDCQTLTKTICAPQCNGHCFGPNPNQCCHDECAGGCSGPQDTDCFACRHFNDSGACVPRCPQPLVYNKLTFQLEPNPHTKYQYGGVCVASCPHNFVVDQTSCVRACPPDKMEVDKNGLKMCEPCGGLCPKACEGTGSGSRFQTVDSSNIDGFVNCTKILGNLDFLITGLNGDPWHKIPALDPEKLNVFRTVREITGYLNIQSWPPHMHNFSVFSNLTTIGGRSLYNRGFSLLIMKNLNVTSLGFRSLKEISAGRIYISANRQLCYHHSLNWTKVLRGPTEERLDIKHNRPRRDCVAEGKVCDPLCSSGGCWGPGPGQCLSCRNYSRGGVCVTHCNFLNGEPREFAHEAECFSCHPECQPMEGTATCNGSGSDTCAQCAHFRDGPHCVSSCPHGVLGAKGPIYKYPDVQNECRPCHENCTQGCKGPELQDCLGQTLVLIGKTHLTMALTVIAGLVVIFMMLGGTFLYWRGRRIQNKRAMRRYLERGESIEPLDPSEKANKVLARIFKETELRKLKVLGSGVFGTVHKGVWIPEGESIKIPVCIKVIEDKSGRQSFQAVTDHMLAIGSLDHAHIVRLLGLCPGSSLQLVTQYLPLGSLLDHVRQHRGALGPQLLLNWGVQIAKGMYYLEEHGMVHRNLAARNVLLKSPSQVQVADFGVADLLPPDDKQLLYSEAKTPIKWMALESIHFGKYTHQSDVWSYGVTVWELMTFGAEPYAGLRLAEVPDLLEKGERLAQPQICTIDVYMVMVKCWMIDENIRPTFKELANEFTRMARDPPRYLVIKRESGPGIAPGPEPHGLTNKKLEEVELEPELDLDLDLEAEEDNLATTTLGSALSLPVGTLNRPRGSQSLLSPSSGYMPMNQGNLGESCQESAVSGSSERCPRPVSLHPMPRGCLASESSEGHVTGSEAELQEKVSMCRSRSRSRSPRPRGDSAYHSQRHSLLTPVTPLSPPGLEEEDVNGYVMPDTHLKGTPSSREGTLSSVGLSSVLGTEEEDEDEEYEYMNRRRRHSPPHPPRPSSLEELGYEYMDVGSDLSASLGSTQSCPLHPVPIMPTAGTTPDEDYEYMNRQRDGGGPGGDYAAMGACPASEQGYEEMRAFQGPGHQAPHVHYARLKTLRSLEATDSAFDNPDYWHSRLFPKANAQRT
# STK33, sequence (Q9BYT3 whole entry): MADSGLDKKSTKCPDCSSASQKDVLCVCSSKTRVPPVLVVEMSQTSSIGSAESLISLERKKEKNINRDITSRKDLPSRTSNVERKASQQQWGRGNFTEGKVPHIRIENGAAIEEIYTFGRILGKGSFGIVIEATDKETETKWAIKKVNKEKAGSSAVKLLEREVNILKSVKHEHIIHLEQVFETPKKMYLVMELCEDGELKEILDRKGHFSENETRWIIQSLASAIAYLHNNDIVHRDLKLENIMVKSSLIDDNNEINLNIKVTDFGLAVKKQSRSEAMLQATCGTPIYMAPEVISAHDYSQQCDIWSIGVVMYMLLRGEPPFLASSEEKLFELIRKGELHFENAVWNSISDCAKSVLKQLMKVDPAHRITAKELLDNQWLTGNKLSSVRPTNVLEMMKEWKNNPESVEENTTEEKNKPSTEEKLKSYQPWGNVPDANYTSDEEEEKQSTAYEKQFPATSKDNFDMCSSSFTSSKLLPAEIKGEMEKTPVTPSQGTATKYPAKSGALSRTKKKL
# ERK2, sequence (P28482 whole entry): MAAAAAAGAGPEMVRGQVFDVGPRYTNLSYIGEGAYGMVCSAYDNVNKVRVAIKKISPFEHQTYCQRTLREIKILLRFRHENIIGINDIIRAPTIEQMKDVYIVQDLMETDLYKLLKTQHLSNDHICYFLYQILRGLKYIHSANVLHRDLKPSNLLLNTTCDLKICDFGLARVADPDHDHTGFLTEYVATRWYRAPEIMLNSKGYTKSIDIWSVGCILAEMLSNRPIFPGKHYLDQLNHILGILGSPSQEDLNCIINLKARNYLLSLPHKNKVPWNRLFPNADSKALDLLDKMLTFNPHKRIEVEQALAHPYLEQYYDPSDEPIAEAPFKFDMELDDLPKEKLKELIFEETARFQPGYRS
# MEK6, sequence (P52564 whole entry): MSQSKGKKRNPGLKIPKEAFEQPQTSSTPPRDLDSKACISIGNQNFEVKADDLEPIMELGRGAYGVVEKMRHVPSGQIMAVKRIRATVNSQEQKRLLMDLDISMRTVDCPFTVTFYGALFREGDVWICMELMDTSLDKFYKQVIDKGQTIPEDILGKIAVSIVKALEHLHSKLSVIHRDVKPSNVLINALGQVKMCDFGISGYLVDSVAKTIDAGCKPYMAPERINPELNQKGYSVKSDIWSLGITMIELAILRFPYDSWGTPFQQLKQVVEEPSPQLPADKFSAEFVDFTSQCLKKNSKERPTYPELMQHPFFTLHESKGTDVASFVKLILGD
# FGR, sequence (P09769 whole entry): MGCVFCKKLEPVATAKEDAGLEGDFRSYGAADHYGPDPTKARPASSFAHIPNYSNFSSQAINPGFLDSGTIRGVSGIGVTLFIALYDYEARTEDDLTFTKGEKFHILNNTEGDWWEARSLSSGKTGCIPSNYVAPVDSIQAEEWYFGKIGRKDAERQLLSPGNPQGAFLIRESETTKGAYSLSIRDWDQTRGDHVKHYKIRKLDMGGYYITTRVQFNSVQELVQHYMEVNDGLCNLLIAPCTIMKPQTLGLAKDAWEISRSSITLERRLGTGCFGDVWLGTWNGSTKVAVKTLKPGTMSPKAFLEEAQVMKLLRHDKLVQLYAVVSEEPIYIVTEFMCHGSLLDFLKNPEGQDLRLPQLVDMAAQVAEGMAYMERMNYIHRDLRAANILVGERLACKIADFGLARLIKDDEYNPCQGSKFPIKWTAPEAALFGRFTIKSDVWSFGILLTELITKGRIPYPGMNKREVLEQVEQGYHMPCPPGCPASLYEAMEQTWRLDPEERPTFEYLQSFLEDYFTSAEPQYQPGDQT
# MEK5, sequence (Q13163 whole entry): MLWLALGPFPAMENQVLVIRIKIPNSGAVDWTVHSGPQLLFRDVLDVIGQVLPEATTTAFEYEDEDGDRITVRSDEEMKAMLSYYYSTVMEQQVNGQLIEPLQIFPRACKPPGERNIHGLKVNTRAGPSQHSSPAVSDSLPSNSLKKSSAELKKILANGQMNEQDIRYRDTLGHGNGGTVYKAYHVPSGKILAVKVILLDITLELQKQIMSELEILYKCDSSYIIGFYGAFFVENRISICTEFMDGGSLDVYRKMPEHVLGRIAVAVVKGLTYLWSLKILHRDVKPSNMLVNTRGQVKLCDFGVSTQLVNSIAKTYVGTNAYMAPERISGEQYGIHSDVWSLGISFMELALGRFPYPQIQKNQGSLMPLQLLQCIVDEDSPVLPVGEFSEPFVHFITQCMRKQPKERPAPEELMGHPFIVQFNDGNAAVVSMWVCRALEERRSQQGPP
# HUNK, sequence (P57058 whole entry): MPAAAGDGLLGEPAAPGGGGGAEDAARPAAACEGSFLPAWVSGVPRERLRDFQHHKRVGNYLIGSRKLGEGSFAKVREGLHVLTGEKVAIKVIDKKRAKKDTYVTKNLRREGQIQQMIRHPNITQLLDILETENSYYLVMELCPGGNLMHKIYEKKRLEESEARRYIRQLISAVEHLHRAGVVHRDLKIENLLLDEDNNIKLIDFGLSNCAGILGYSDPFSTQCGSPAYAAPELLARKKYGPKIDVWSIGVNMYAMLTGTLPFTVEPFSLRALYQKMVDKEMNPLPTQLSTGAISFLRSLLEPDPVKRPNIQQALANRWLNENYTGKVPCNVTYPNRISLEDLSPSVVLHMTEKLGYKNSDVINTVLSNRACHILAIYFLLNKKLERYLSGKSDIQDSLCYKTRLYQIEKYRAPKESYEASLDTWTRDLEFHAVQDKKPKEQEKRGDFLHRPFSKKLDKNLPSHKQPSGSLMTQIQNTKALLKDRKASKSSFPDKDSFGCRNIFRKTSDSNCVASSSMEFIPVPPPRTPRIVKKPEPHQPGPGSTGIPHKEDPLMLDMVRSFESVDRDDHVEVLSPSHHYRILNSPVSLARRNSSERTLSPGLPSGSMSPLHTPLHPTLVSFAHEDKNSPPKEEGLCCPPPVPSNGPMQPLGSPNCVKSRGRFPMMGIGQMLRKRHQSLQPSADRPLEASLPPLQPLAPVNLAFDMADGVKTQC
# YSK1, sequence (O00506 whole entry): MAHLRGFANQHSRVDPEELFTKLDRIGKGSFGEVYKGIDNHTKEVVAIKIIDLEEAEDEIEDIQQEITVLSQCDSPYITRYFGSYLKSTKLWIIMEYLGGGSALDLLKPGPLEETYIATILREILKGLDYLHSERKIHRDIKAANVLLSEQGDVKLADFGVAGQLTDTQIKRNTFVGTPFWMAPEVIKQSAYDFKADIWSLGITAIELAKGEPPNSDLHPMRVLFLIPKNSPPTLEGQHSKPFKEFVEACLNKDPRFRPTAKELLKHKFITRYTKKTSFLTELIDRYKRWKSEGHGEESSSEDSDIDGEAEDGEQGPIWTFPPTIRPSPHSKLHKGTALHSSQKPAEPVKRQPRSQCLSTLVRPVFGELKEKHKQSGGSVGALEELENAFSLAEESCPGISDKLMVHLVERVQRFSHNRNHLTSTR
compound,measurement,setting,value
"CN(C[C@@H](O)Cc1ccccc1)C(=O)c1cncc(C#Cc2cnn(C(F)F)c2)c1 [Example 2, (S)-5-((1-(difluoromethyl)-1H-pyrazol-4-yl)ethynyl)-N-(2-hydroxy-3-phenylpropyl)-N-methylnicotinamide]",Number of Hits S(1),[1],0
same,Number of Hits S(10),[1],1
same,Number of Hits S(35),[1],3
same,Selectivity Score S(10),[1],0.002
same,Selectivity Score S(35),[1],0.007
same,remaining activity at 0.1 µM,"[2]; EGFR(L858R,T790M)",83%
same,remaining activity at 0.1 µM,[3]; PRKG1,92%
same,remaining activity at 0.1 µM,[4]; CDK3,100%
same,remaining activity at 0.1 µM,[5]; MEK5,89%
same,remaining activity at 0.1 µM,[6]; INSR,100%
same,remaining activity at 0.1 µM,[7]; CAMKK2,99%
same,remaining activity at 0.1 µM,[8]; p38-beta,100%
same,remaining activity at 0.1 µM,[9]; KIT(D816H),100%
same,remaining activity at 0.1 µM,[10]; HUNK,82%
same,remaining activity at 0.1 µM,[11]; MRCKB,95%
same,remaining activity at 0.1 µM,[12]; ERK3,100%
same,remaining activity at 0.1 µM,[13]; ERK8,100%
same,remaining activity at 0.1 µM,[14]; ICK,100%
same,remaining activity at 0.1 µM,[15]; ERBB3,100%
same,remaining activity at 0.1 µM,[16]; ERK2,100%
same,remaining activity at 0.1 µM,[17]; PDGFRB,100%
same,remaining activity at 0.1 µM,[18]; MEK6,100%
same,remaining activity at 0.1 µM,[19]; GSK3B,100%
same,remaining activity at 0.1 µM,[20]; PIK3CB,100%
same,remaining activity at 0.1 µM,[21]; TAOK1,100%
same,remaining activity at 0.1 µM,[22]; YSK1,100%
same,remaining activity at 0.1 µM,[23]; FGR,100%
same,remaining activity at 0.1 µM,[24]; YSK4,99%
same,remaining activity at 0.1 µM,[25]; STK33,88%
same,remaining activity at 0.1 µM,[26]; IRAK3,96%
"CN(C[C@H](Cc1ccccc1)OP(=O)(O)O)C(=O)c1cncc(C#Cc2cnn(C(F)F)c2)c1 [Example 19, (S)-1-(5-((1-(difluoromethyl)-1H-pyrazol-4-yl)ethynyl)-N-methylnicotinamido)-3-phenylpropan-2-yl dihydrogen phosphate]",Number of Hits S(1),[1],0
same,Number of Hits S(10),[1],0
same,Number of Hits S(35),[1],0
same,remaining activity at 0.1 µM,[2],94%
same,remaining activity at 0.1 µM,[3],100%
same,remaining activity at 0.1 µM,[4],100%
same,remaining activity at 0.1 µM,[5],87%
same,remaining activity at 0.1 µM,[6],100%
same,remaining activity at 0.1 µM,[7],100%
same,remaining activity at 0.1 µM,[8],97%
same,remaining activity at 0.1 µM,[9],98%
same,remaining activity at 0.1 µM,[10],96%
same,remaining activity at 0.1 µM,[11],100%
same,remaining activity at 0.1 µM,[12],100%
same,remaining activity at 0.1 µM,[13],100%
same,remaining activity at 0.1 µM,[14],93%
same,remaining activity at 0.1 µM,[15],100%
same,remaining activity at 0.1 µM,[16],100%
same,remaining activity at 0.1 µM,[17],100%
same,remaining activity at 0.1 µM,[18],96%
same,remaining activity at 0.1 µM,[19],98%
same,remaining activity at 0.1 µM,[20],95%
same,remaining activity at 0.1 µM,[21],100%
same,remaining activity at 0.1 µM,[22],97%
same,remaining activity at 0.1 µM,[23],99%
same,remaining activity at 0.1 µM,[24],90%
same,remaining activity at 0.1 µM,[25],100%
same,remaining activity at 0.1 µM,[26],92%
